Reference: paper PMC12373846, “Hemoglobin as a pseudoperoxidase and drug target for oxidative stress-related diseases” (Signal Transduction and Targeted Therapy, 2025)

Assays:
APP/PS1 mice = test: Immunohistochemistry of hippocampus, APP/PS1 mice; type: in vivo, mouse; conditions: 3 mg/kg/day i.p.
Experimental: For an animal model of AD, both sexes of 10- to 18-month-old APP/PS1 mice were maintained and used as previously described.[76],[77] To test the effects of novel H2O2-decomposing enhancers in the AD model, the mice were treated by i.p. injection with KDS12008 (3 mg/kg/day), KDS12017 (3 mg/kg/day), or KDS12025 (3 or 10 mg/kg/day) once per day for 1 or 2 weeks, depending on the experimental protocol. All drugs were dissolved in 200 μl of saline, and the amount of each drug was calculated on the basis of the weight (kg) of the mouse. Moreover, KDS12025 (3 mg/kg/day) was orally administered to the AD model for 2 weeks ad libitum.
The mice were deeply anesthetized with vaporized 1% isoflurane and placed into stereotaxic frames (RWD Life Science, China). Following an incision on the midline of the scalp, a hole was drilled into the skull above the hippocampus. AAV-GFAP104-GFP or AAV-GFAP104-DTR-GFP was bilaterally microinjected into the hippocampal CA1 region (AP, −2.0 mm; ML, ±1.5 mm; DV, −1.65 mm from the bregma). Diphtheria toxin (2 mg/ml) was administered for 16 days as previously described.[77] For shRNA knockdown, AAV-pSicoR-Hbβ-shRNA-mCherry or AAV-pSicoR-Sc-shRNA-mCherry was microinjected into the same coordinate system. A total of 0.8 µl of the virus was injected via a syringe pump (KD Scientific, USA). The injection procedures were implemented before 5 weeks of the experiments. For cell type-specific knockdown, AAV-pSico-Hbβ-shRNA-GFP or AAV-pSico-Sc-shRNA-GFP was combined with either AAV-CaMKII-Cre-mCherry for neuronal targeting or AAV-GFAP-Cre-mCherry for astrocyte targeting. The viruses were bilaterally injected into the hippocampus and substantia nigra via the same stereotaxic coordinates and injection procedures. All viruses used in this study were produced at the Institute for Basic Science virus facility (IBS virus facility, Korea). To investigate the effects of 0.1 mg/kg/day KDS12025, GiD mice were injected with diphtheria toxin (2 mg/ml) daily for 16 days. Concurrently, KDS12025 was administered ad libitum (0.1 mg/kg/day) during the same period.
The mice were deeply anesthetized with 2% isoflurane and positioned on the operating table. After the abdomen was opened and the heart was exposed, the […] were perfused with saline, followed by 4% paraformaldehyde (PFA) in 0.1 M PBS. The mice were decapitated, and the brains were excised from the skull. Excised brains were postfixed in 4% PFA overnight at 4 °C and dehydrated in 30% sucrose for 48 h. Coronal hippocampal sections were cut at 30 µm thickness with a cryostat and stored in storage solution. For the ALS experiments, lumbar spinal cords (L2–L5) were also carefully dissected and immediately immersed in 4% PFA for postfixation. The sections were fully washed in 0.1 M PBS and incubated for 1 h in blocking solution (0.3% Triton X-100, 2% donkey and goat serum in 0.1 M PBS). Next, a mixture of primary antibodies in the blocking solution was used for immunostaining on a shaker overnight at 4 °C. The sections were washed in PBS three times. After washing, the sections were incubated with the corresponding fluorescent secondary antibodies for 1 h at RT. DAPI staining was performed by adding a DAPI solution (1:2000) during the second washing step. After the washing step was complete, the sections were mounted on cover slides with mounting medium. A series of fluorescence images were obtained with an LSM900 (Zeiss, Germany) confocal microscope or Lattice SIM Elyra 7 (Zeiss, Germany). The 15–22 μm Z stack images in 1–2 μm steps were processed for image analysis, which was performed via the ImageJ (NIH, US) and ZEN digital imaging for light microscopy blue system (Zeiss, Germany) programs.

[1] = ROS-Glo H2O2 assay without HRP or Hb; type: biochemical; conditions: ROS-Glo assay lacking HRP/Hb
Experimental: (§1) Hb (Sigma‒Aldrich, H7379), H2O2 (Sigma‒Aldrich, H1009), and Amplex Red reagents (Invitrogen, A12222) were obtained for the study. A 4 μM H2O2 solution was prepared in 50 mM sodium phosphate buffer (pH 7.2). Then, 49 μl of this mixture was mixed with 1 μl of the test compound in DMSO or distilled water. The mixture was combined with an assay mixture of Amplex Red reagent (20 mM stock to 0.1 mM) and HRP (200 U/ml stock to 0.2 U/ml) and added to the wells at 50 μl/well. After a 60-min incubation at 37 °C, resorufin production was quantified via a microplate fluorescence reader (SpectraMax iD5, Molecular Devices) at ex/em = 535/580 nm. The H2O2-decomposing activity was estimated via the following equation: (sample fluorescence-blank fluorescence)/(control […]-blank fluorescence) × 100. For the ROS-Glo assay, the H2O2 substrate solution and ROS-Glo detection solution were prepared according to the manufacturer’s instructions. 10 μM H2O2 and drugs were prepared as in the Amplex Red assay, with HRP, Hb, CAT, or GPx added as needed. The mixture was added to the wells at 100 μl/well and incubated for 60 min at 37 °C. H2O2 substrate solution was added, and the mixture was incubated at room temperature for 30 min. After the H2O2 substrate solution was added and incubated at room temperature for 30 min, the ROS-Glo detection solution was added, and the mixture was incubated for 15 min. Luminescence was measured via iD5 microplate readers. The H2O2-decomposing activity was estimated via the following equation: (sample luminescence-blank luminescence)/(control luminescence-blank luminescence) × 100. The U/ml was calculated on the basis of the amount of H2O2 reduced by Hb during the reaction, using μg/ml and U/mg.

HRP = target: T1, HRP (Armoracia rusticana, UniProt P00433); test: H2O2 assay with HRP (HRP-EC50); type: biochemical, horseradish; conditions: Tables S2, S3; read-out: HRP-EC50
T1 sequence (P00433 31-353): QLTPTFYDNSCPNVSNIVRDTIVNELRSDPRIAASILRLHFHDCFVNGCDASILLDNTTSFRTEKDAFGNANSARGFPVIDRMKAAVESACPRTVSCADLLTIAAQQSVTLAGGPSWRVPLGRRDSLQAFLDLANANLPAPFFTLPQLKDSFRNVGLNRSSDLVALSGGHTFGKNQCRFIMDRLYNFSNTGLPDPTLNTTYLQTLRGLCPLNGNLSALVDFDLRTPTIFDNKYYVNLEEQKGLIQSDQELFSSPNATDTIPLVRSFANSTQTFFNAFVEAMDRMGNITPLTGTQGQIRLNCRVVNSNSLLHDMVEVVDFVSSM
Experimental: as §1

For `CNc1ccc(NCCc2ccc(C(F)(F)F)cc2)cc1.Cl` [KDS12017, N^1-methyl-N^4-(4-(trifluoromethyl)phenethyl)benzene-1,4-diamine hydrochloride salt], the “mean intensity of Iba1 in the hippocampus” value (APP/PS1 mice; Fig. S10e) was 1556±53.65, the “mean intensity of GFAP in the hippocampus” value (APP/PS1 mice; Fig. S10d) was 1711±145.9 and the “H2O2-decomposing activity without HRP or Hb” value [1] was “neither KDS12017 nor KDS12025 degrades H2O2 without Hb”. It also gave an EC50 (HRP) of 0.828 µM.
